Laboratory results published in ChEMBL document CHEMBL5052848, “Atf6 modulators and uses thereof” (2021).

How the values were obtained:
Assay type in all cases: cell-based
[1] = system: U2OS; assay: Modulation of ATF6 activity in human U2OS cells at 1 uM in presence of ER stress inducer thapsigargin (Tg) measured by TRE-luciferase reporter assay relative to control
[2] = system: U2OS; assay: Modulation of ATF6 activity in human U2OS cells at 10 uM in presence of ER stress inducer thapsigargin (Tg) measured by TRE-luciferase reporter assay relative to control
[3] = system: U2OS; assay: Modulation of ATF6 activity in human U2OS cells at 1 uM measured by TRE-luciferase reporter assay relative to control
[4] = system: U2OS; assay: Modulation of ATF6 activity in human U2OS cells at 10 uM measured by TRE-luciferase reporter assay relative to control

| Structure (SMILES) | Activity [1] [%] | Activity ([2]; filed as activator) [%] | Activity [3] [%] | Activity [4] [%] | Activity ([1]; filed as activator) [%] | Activity [2] [%] |
| --- | --- | --- | --- | --- | --- | --- |
| CC(c1c(Cl)cccc1Cl)n1cc(NC(=O)c2cc(-c3cccs3)on2)cn1 (stereo unspecified) | 75 | 100 | 0 | 0 | – | – |
| CC(c1c(F)cccc1Cl)n1cc(NC(=O)c2cc(-c3ccco3)on2)cn1 (stereo in doubt; 1-14) | – | > 150 | 0 | 0 | > 150 | – |
| O=C(Nc1cnn(Cc2ccc(C(F)(F)F)cc2C(F)(F)F)c1)c1cc(-c2ccco2)on1 | < 50 | – | – | – | – | < 50 |
| O=C(Nc1cnn(C2CCCc3ccccc32)c1)c1cc(-c2ccco2)on1 (stereo unspecified) | – | 125 | – | – | 100 | – |
| CC(c1c(F)cccc1Cl)n1cc(NC(=O)c2cc(-c3ccco3)on2)cn1 (stereo in doubt; 1-15) | – | 100 | 0 | 0 | 100 | – |
| CC(c1c(Cl)cccc1Cl)n1cc(NC(=O)c2cc(-c3ccco3)on2)cn1 (stereo unspecified) | – | > 150 | 0 | 0 | > 150 | – |
| O=C(Nc1cnn(C2CCc3cc(Cl)ccc32)c1)c1cc(-c2ccco2)on1 (single isomer, unassigned; enantiomer B) | 75 | – | – | – | – | 75 |
| CC(c1ccc(C(F)(F)F)cc1C(F)(F)F)n1cc(NC(=O)c2cc(-c3cnccn3)no2)cn1 (stereo in doubt; 1-25) | 75 | – | – | – | – | 75 |
| CC(c1ccc(F)cc1Cl)n1cc(NC(=O)c2cc(-c3ccco3)on2)cn1 (stereo unspecified) | – | – | – | – | 100 | 75 |
| CC(c1c(F)cccc1Cl)n1cc(NC(=O)c2cc(-c3ccco3)on2)cn1 (stereo in doubt; 1-4) | – | > 150 | – | – | > 150 | – |
| CC(c1ccc(F)cc1F)n1cc(NC(=O)c2cc(-c3ccco3)on2)cn1 (stereo in doubt; 1-5) | – | > 150 | – | – | 100 | – |
| CC(c1ccc(F)cc1F)n1cc(NC(=O)c2cc(-c3ccco3)on2)cn1 (stereo in doubt; 1-17) | – | 100 | 0 | 0 | 100 | – |
| O=C(Nc1cnn(Cc2ccc(C(F)(F)F)cc2)c1)c1cc(-c2ccco2)on1 | – | – | – | – | 100 | 75 |
| CC(c1ccc(C(F)(F)F)cc1C(F)(F)F)n1cc(NC(=O)c2cc(-c3cnccn3)no2)cn1 (stereo in doubt; 1-11) | 50 | – | – | – | – | < 50 |
| CC(c1c(Cl)cccc1Cl)n1cc(NC(=O)c2cc(-c3ccco3)on2)cn1 (single isomer, unassigned) | – | 100 | – | – | 125 | – |
| O=C(Nc1cnn(C2CCc3cc(C(F)(F)F)ccc32)c1)c1cc(-c2cnccn2)on1 (stereo unspecified) | 75 | – | – | – | – | 75 |
| O=C(Nc1cnn(Cc2ccccc2)c1)c1cc(-c2ccco2)on1 | – | 125 | – | – | 100 | – |
| Cc1c(NC(=O)c2cc(-c3ccco3)on2)cnn1C(C)c1c(F)cccc1Cl (stereo unspecified) | 75 | 100 | 0 | 0 | – | – |
| CC(c1ccc(C(F)(F)F)cc1C(F)(F)F)n1cc(NC(=O)c2cc(-c3cnccn3)no2)cn1 (stereo in doubt; 1-26) | < 50 | – | – | – | – | < 50 |
| O=C(Nc1cnn(C2CCc3cc(Cl)ccc32)c1)c1cc(-c2ccco2)on1 (single isomer, unassigned; enantiomer A) | 75 | – | – | – | – | < 50 |
| CC(c1ccc(F)cc1F)n1cc(NC(=O)c2cc(-c3ccco3)on2)cn1 (stereo in doubt; 1-16) | – | 125 | 0 | 0 | 100 | – |
